Data from patent US20110136776A1, “Copper(1)Chloride Complex of Nicotinic Acid and Pharmaceutical Compositions Containing the Same” (priority 2008, published 2011).

System: fatigue
Settings: all types of fatigue: unexplained fatigue, chronic fatigue syndrome, fibromyalgia

[CuCl (Nicotinic acid)2 H20]complex [The complex]
Effect in chronic fatigue (muscle pain, physical activity, productivity, depression): relieved the muscle pain, increased the physical activity and productivity
